Series [1] concerns male rabbit (NewZealandWhite). Briefly: Aqueous humor protein concentration in rabbit after ocular instillation. The class given is in vivo. The note with it: ocular instillation 30 μL, 0.1% (w/v), 0-8 hours. The protocol: (2-2) Assessment of Ocular Stimulating Property and Aqueous Humor Protein Concentration
To one eye of a male rabbit (NewZealandWhite, 2.0 to 3.0 kg) was ocular-instilled 30 μL of the compound of Example 16 (35), the compound of Example 16 (3) and the compound of Example 16 (25) which had been adjusted to 0.1% (w/v) with a base (containing citrate buffer pH 6.5, 0.5% polysorbate 80, 1% propylene glycol, 0.01% benzalkonium chloride), respectively. Thereafter, an aqueous humor in anterior chamber after 0, 1, 2, 4, 6 and 8 hours from ocular instillation was collected, and a protein concentration in the humor was measured. As a comparative compound, the aforementioned methyl ester of the compound of Example 12 described in Patent Literature 2 (i.e. compound of Example 10 described in Patent Literature 2) (hereinafter, abbreviated as Comparative Compound B in some cases) was used.
Regarding any test compound, a dose until a dissolution limit (150 to 1000 μg/mL) was administered and action of each active body was assessed.

Another series deals with male dog (TOYO Beagle). In words: Intraocular pressure lowering action in dog after ocular instillation. The class given is in vivo. The procedure: (2-1) Intraocular Pressure Lowering Action
To one eye of a male dog (TOYO Beagle) which had been sufficiently acclimated in advance was ocular-instilled 30 μL of each test compound (compound of Example 16 (35), compound of Example 16 (3) and compound of Example 16(25)) which had been adjusted with a base (containing citrate buffer pH 6.5, 0.5% polysorbate 80, 1% propylene glycol, 0.01% benzalkonium chloride) to 0.01% (w/v) or 0.001% (w/v), respectively. The other eye was not treated. As a positive control compound, latanoprost which is the known compound was used.
Thereafter, an ocular surface anesthetic (Benoxil eye drops 0.4%, Santen Pharmaceutical Co., Ltd.) was subjected to ocular instillation to locally anesthetize eyes, and an intraocular pressure of each test compound before ocular instillation and after 2, 4, 6, 8, and 24 hours from ocular instillation was measured. An intraocular pressure was measured using a pneumatic applanation flat tonometer (Model 30 Classic, REICHERT). An intraocular pressure lowering rate (%) was calculated by the following equation. Intraocular pressure lowering rate (%)=(intraocular pressure value before ocular instillation−intraocular pressure value at each point)/(intraocular pressure value before ocular instillation)×100 [Mathematic 1]

Turning to `CC(C)OC(=O)CCC[C@H]1CC[C@@H]2[C@@H](/C=C/[C@@H](O)COc3cccc(Cl)c3)[C@H](O)C[C@@H]2OC1` [Example 16 (3), 2-Propanyl 4-{(3S, 5aR, 6R, 7R, 8aS)-6-[(1E, 3R)-4-(3-chlorophenoxy)-3-hydroxy-1-buten-1-yl]-7-hydroxyoctahydro-2H-cyclopenta[b]oxepin-3-yl}butanoate], the “Action on protein concentration in aqueous humor (in words)” value (“Action on protein concentration” below) in series [1] is on record as “no action of raising a protein concentration in an aqueous humor”. Further, the “Intraocular pressure lowering action compared with positive control latanoprost (in words)” value with male dog (TOYO Beagle) is “stronger intraocular pressure lowering action as compared with latanoprost”.

As for `CC(C)OC(=O)CCC[C@H]1CC[C@@H]2[C@@H](/C=C/[C@@H](O)COc3cc(F)ccc3F)[C@H](O)C[C@@H]2OC1` [Example 16 (25), 2-Propanyl 4-{(3S, 5aR, 6R, 7R, 8aS)-6-[(1E, 3R)-4-(2,5-difluorophenoxy)-3-hydroxy-1-buten-1-yl]-7-hydroxyoctahydro-2H-cyclopenta[b]oxepin-3-yl}butanoate], the “Action on protein concentration” value in series [1] is recorded as “no action of raising a protein concentration in an aqueous humor”. Further, the “Intraocular pressure lowering action compared with positive control latanoprost (in words)” value in the series on male dog (TOYO Beagle) is listed as “stronger intraocular pressure lowering action as compared with latanoprost”.

Consider `CCOC(=O)CCC[C@H]1CC[C@@H]2[C@@H](/C=C/[C@@H](O)COc3ccccc3)[C@H](O)C[C@@H]2OC1` [Example 16 (35), Ethyl 4-{(3S, 5aR, 6R, 7R, 8aS)-7-hydroxy-6-[(1E, 3R)-3-hydroxy-4-phenoxy-1-buten-1-yl]octahydro-2H-cyclopenta[b]oxepin-3-yl}butanoate], for which the “Action on protein concentration” value in series [1] was “no action of raising a protein concentration in an aqueous humor”. Also, the “Intraocular pressure lowering action compared with positive control latanoprost (in words)” value with male dog (TOYO Beagle) was “stronger intraocular pressure lowering action as compared with latanoprost”.

The values are drawn from patent publication US11617733B2, “Bicyclic compound and use thereof for medical purposes” (ONO PHARMACEUTICAL CO., LTD., priority 2009, dated 2023).
